The experiment addresses CDK2 (UniProt P24941). The experiment is described as follows: Enzyme Assay.

Experimental findings from the Kinase Knowledgebase extract (Sharma et al. 2016) are described below.

For orientation: pIC50 means the IC50 on a negative log10 scale, so that one unit is a factor of ten. A lower pIC50 goes with a high IC50.

Molecules are shown by their SMILES. pIC50: −log10 of the molar value. Where “and” joins values, the source holds several entries; their conditions need not be identical. Identical values can stand only once.

Molecule `NC(=O)N1CCC(c2cc(NCc3cccnc3)n3ncc(Br)c3n2)CC1` showed a pIC50 of 7.00 to 10.00.

`OCC1(Nc2cc(NCc3cccnc3)n3ncc(Br)c3n2)CCCC1` showed a pIC50 of 7.00 to 10.00.

For `[O-][n+]1cccc(CNc2cc(-c3cccs3)nc3c(Br)cnn23)c1`, the pIC50 is 7.00 to 10.00.

In turn, `[O-][n+]1cc(CNc2cc(-c3ccccc3)nc3c(Br)cnn23)ccc1OCC(F)(F)F` showed a pIC50 of 7.00 to 10.00.

`Brc1cnn2c(NCc3cccnc3)cc(C3CCCCC3)nc12` gave a negative-log IC50 (pIC50) of 7.00 to 10.00.

`[O-][n+]1cccc(CNc2cc(N3CCC[C@H]3CO)nc3c(Br)cnn23)c1` had a negative-log IC50 (pIC50) of 7.00 to 10.00.

As to `OC[C@H]1CCCC[C@H]1c1cc(NCc2cccnc2)n2ncc(Br)c2n1`, the pIC50 was 7.00 to 10.00.

`COc1ccc(CNc2cc(-c3ccccc3F)nc3c(Br)cnn23)c[n+]1[O-]` gave a pIC50 of 7.00 to 10.00.

Molecule `O=c1ccc(CNc2cc(C3CCCCC3)nc3c(Br)cnn23)c[nH]1` showed a negative logarithm of the IC50 (pIC50) of 7.00 to 10.00.

In the case of `CC(C)[C@@H](CO)Nc1cc(NCc2ccc[n+]([O-])c2)n2ncc(Br)c2n1`, the pIC50 was 7.00 to 10.00.

`OC[C@H]1CCCC[C@H]1Nc1cc(NCc2cccnc2)n2ncc(Br)c2n1` had a negative logarithm of the IC50 (pIC50) of 7.00 to 10.00.

`Nc1ncc(CNc2cc(C3CCCNC3)nc3c(Br)cnn23)cn1` (centres undefined) gave a pIC50 of 7.00 to 10.00.

Turning to `Cc1ccccc1-c1cc(NCc2ccc[n+]([O-])c2)n2ncc(Br)c2n1`, the negative-log IC50 (pIC50) is 7.00 to 10.00.

In turn, `CC(C)c1cc(NCc2ccc[n+]([O-])c2)n2ncc(Br)c2n1` showed a pIC50 of 7.00 to 10.00.

Take `Brc1cnn2c(NCc3cccnc3)cc(-c3ccco3)nc12`: the negative-log IC50 (pIC50) is 7.00 to 10.00.

For the molecule `CC1(C)[C@@H]2[C@@H](CO)N(c3cc(NCc4cccnc4)n4ncc(Br)c4n3)C[C@@H]21`, the pIC50 is 7.00 to 10.00.

For the molecule `[O-][n+]1cccc(CNc2cc(C3CCOCC3)nc3c(Br)cnn23)c1`, the negative-log IC50 (pIC50) is 7.00 to 10.00.

`CC(C)[C@H](CO)Nc1cc(NCc2ccc[n+]([O-])c2)n2ncc(Br)c2n1` gave a pIC50 of 7.00 to 10.00.

Molecule `[O-][n+]1cccc(CNc2cc(-c3ccccc3)nc3c(Br)cnn23)c1` had a negative logarithm of the IC50 (pIC50) of 7.00 to 10.00.

As for `CC(C)(O)[C@@H]1CCCN1c1cc(NCc2cccnc2)n2ncc(Br)c2n1`, the negative-log IC50 (pIC50) is 7.00 to 10.00.

On to `CN1CCN(c2cc(NCc3cccnc3)n3ncc(Br)c3n2)CC1`, for which the pIC50 was 6.85.

`CCc1cnn2c(NCc3ccnc(O)c3)cc(-c3ccccc3)nc12` showed a pIC50 of 7.00 to 10.00.

Molecule `CCc1cnn2c(NCc3ccc[n+]([O-])c3)cc(C3CCCCC3)nc12` gave a negative logarithm of the IC50 (pIC50) of 7.00 to 10.00.

`Brc1cnn2c(NCc3cccnc3)cc(C3CCOCC3)nc12`: the pIC50 is 7.00 to 10.00.

In turn, `CCc1cnn2c(NCc3ccc[n+]([O-])c3)cc(-c3ccccc3F)nc12` showed a negative logarithm of the IC50 (pIC50) of 7.00 to 10.00.

Regarding `OCC[C@@H]1CCCN1c1cc(NCc2cccnc2)n2ncc(Br)c2n1`, the negative-log IC50 (pIC50) is 7.00 to 10.00.

`NC(=O)N1CCCC(c2cc(NCc3cccnc3)n3ncc(Br)c3n2)C1` (centres undefined): the pIC50 was 7.00 to 10.00.

`[O-][n+]1cccc(CNc2cc(C3CCNCC3)nc3c(Br)cnn23)c1` had a negative logarithm of the IC50 (pIC50) of 7.00 to 10.00.

`[O-][n+]1cccc(CNc2cc(-c3ccccc3Cl)nc3c(Br)cnn23)c1` showed a negative logarithm of the IC50 (pIC50) of 7.00 to 10.00.

Molecule `OCCC1CCCCN1c1cc(NCc2cccnc2)n2ncc(Br)c2n1` (centres undefined) gave a negative-log IC50 (pIC50) of 7.00 to 10.00.

As for `CS(=O)(=O)N1CCC(c2cc(NCc3cccnc3)n3ncc(Br)c3n2)CC1`, the negative-log IC50 (pIC50) was 7.00 to 10.00.

On to `CC(=O)N1CCCC(c2cc(NCc3cccnc3)n3ncc(Br)c3n2)C1` (centres undefined), for which the negative-log IC50 (pIC50) is 7.00 to 10.00.

`[O-][n+]1cccc(CNc2cc(-c3ccccc3F)nc3c(Br)cnn23)c1` gave a pIC50 of 7.00 to 10.00.

`CC(C)(O)[C@@H]1CCCN1c1cc(NCc2ccc[n+]([O-])c2)n2ncc(Br)c2n1` showed a negative-log IC50 (pIC50) of 7.00 to 10.00.

Turning to `Brc1cnn2c(NCc3cccnc3)cc(-c3ccccc3)nc12`, the pIC50 is 7.00 to 10.00.

For the molecule `OCC1CCCCN1c1cc(NCc2cccnc2)n2ncc(Br)c2n1` (centres undefined), the pIC50 is 7.00 to 10.00.

Molecule `O=C(C1CC1)N1CCC(c2cc(NCc3cccnc3)n3ncc(Br)c3n2)CC1` had a pIC50 of 7.00 to 10.00.

On to `CNC(=O)c1ccc(CNc2cc(-c3ccccc3F)nc3c(Br)cnn23)cc1`, for which the negative-log IC50 (pIC50) was 7.00 to 10.00.

As for `Brc1cnn2c(NCc3cccnc3)cc(C3CCNCC3)nc12`, the pIC50 was 7.00 to 10.00.

`Oc1cc(CNc2cc(C3CCCCC3)nc3c(Br)cnn23)ccn1` had a pIC50 of 7.00 to 10.00.

Consider `Fc1ccccc1-c1cc(NCc2ccncc2)n2ncc(Br)c2n1`, for which the negative logarithm of the IC50 (pIC50) is 7.49 and 7.62.

`Brc1cnn2c(NCc3ccc4[nH]cnc4c3)cc(C3CCCCC3)nc12` had a negative logarithm of the IC50 (pIC50) of 7.00 to 10.00.

On to `CC(C)Oc1ccc(CNc2cc(-c3ccccc3F)nc3c(Br)cnn23)c[n+]1[O-]`, for which the negative-log IC50 (pIC50) was 7.00 to 10.00.

In turn, `O=c1ccc(CNc2cc(-c3ccccc3)nc3c(Br)cnn23)c[nH]1` gave a negative logarithm of the IC50 (pIC50) of 7.00 to 10.00.

As to `O=c1cc(CNc2cc(-c3ccccc3)nc3c(Br)cnn23)cc[nH]1`, the pIC50 is 7.00 to 10.00.

Molecule `CCc1cnn2c(NCc3ccc[n+]([O-])c3)cc(-c3ccccc3)nc12` had a pIC50 of 7.00 to 10.00.

With `CC(=O)N1CCC(c2cc(NCc3cccnc3)n3ncc(Br)c3n2)CC1`, the pIC50 is 7.00 to 10.00.

On to `CC(C)(CO)Nc1cc(NCc2cccnc2)n2ncc(Br)c2n1`, for which the negative logarithm of the IC50 (pIC50) was 7.00 to 10.00.

In turn, `Brc1cnn2c(NCc3cccnc3)cc(C3CCCNC3)nc12` (centres undefined) had a pIC50 of 7.00 to 10.00.

`O=c1ccc(CNc2cc(-c3ccccc3F)nc3c(Br)cnn23)c[nH]1` gave a pIC50 of 7.00 to 10.00.

Molecule `COc1c(Cl)cc(CNc2cc(-c3ccccc3)nc3c(Br)cnn23)c[n+]1[O-]` gave a pIC50 of 7.00 to 10.00.

Turning to `[O-][n+]1cccc(CNc2cc(C3CCCCC3)nc3c(Br)cnn23)c1`, the negative-log IC50 (pIC50) is 7.00 to 10.00.

As to `Brc1cnn2c(NCc3ccc4[nH]cnc4c3)cc(C3CCNCC3)nc12`, the pIC50 is 7.00 to 10.00.

`CS(=O)(=O)N1CCCC(c2cc(NCc3cccnc3)n3ncc(Br)c3n2)C1` (centres undefined): the pIC50 was 7.00 to 10.00.

`Cn1cnc2cc(CNc3cc(-c4ccccc4)nc4c(Br)cnn34)ccc21` gave a pIC50 of 7.00 to 10.00.

`[O-][n+]1cccc(CNc2cc(-c3ccco3)nc3c(Br)cnn23)c1` showed a pIC50 of 7.00 to 10.00.

In the case of `Fc1ccccc1-c1cc(NCc2ccc3[nH]cnc3c2)n2ncc(Br)c2n1`, the pIC50 is 7.00 to 10.00.

The molecule `CCOc1ccc(CNc2cc(-c3ccccc3)nc3c(Br)cnn23)c[n+]1[O-]` gave a negative-log IC50 (pIC50) of 7.00 to 10.00.

As to `CC(C)(O)[C@H]1CCCC[C@H]1c1cc(NCc2cccnc2)n2ncc(Br)c2n1`, the negative-log IC50 (pIC50) is 7.00 to 10.00.

The molecule `CCc1cnn2c(NCc3ccc(OC)[n+]([O-])c3)cc(-c3ccccc3F)nc12` gave a pIC50 of 7.00 to 10.00.

Molecule `Brc1cnn2c(NCc3ccc(-c4csnn4)cc3)cc(C3CCNCC3)nc12` had a pIC50 of 7.00 to 10.00.

The molecule `[O-][n+]1cccc(CNc2cc(-c3ccc(Cl)cc3)nc3c(Br)cnn23)c1` had a pIC50 of 7.00 to 10.00.

Molecule `N[C@H]1CC[C@H](Nc2cc(NCc3cccnc3)n3ncc(Br)c3n2)CC1` showed a pIC50 of 7.00 to 10.00.

`CCc1cnn2c(NCc3cccnc3)cc(-c3ccccc3)nc12` showed a pIC50 of 7.00 to 10.00.
